Reference: publication PMC8286840, “Identifying SARS-CoV-2 antiviral compounds by screening for small molecule inhibitors of Nsp3 papain-like protease” (Biochemical Journal, 2021)
Counter-ions that a name gives are not always drawn. Like-named read-outs stand apart in the source and are kept apart here.

Key:
[1] = biological target: T1, SARS-CoV-2 PLpro (nsp3 1564–1878) (Severe acute respiratory syndrome coronavirus 2, UniProt P0DTD1); assay: biochemical; set-up: FRET-quenched peptide (Pro3) cleavage by PLpro, 10 min pre-incubation, slope over 20 min, normalised to no-compound control; conditions: high concentration screen, read-out: % of control remaining
[2] = biological target: T1, SARS-CoV-2 PLpro (nsp3 1564–1878); assay: biochemical; set-up: FRET-quenched peptide (Pro3) cleavage by PLpro, 10 min pre-incubation, slope over 20 min, normalised to no-compound control; conditions: low concentration screen, read-out: % of control remaining

What does the source list for `CC(C)(C)C[C@@H]1N[C@@H](C(=O)N[C@H]2CC[C@H](O)CC2)[C@H](c2cccc(Cl)c2F)[C@]12C(=O)Nc1cc(Cl)ccc12` [SAR405838]?
remaining activity at 3.75 µM ([1]; Well no.=6550): 110%; remaining activity at 1.25 µM ([2]; Well no.=6550): 109%

For `Nc1nccc(-c2c(-c3ccc(F)cc3)ncn2C2CCNCC2)n1` [SB220025], which remaining activity at 3.75 µM ([1]; Well no.=2604) is on record?
Its remaining activity at 3.75 µM is 99.7%.

And the remaining activity at 1.25 µM ([2]; Well no.=2604)?
The remaining activity at 1.25 µM was 99.6%.

For `COc1nccc(-c2c(-c3ccc(F)cc3)ncn2C2CCNCC2)n1` [SB242235], which remaining activity at 3.75 µM ([1]; Well no.=2701) is on record?
Its remaining activity at 3.75 µM is 105%.

What about the remaining activity at 1.25 µM ([2]; Well no.=2701) of the same compound?
Its remaining activity at 1.25 µM is 105%.

Which results are given for `NC(N)=NCCC[C@H](NC(=O)COCC(c1ccccc1)c1ccccc1)C(=O)O` [SB290157 (trifluoroacetate)]?
remaining activity at 3.75 µM ([1]; Well no.=8404): 92.8%; remaining activity at 1.25 µM ([2]; Well no.=8404): 94.2%

Which results are given for `CCOC(=O)[C@H](Cc1ccc([N+](=O)[O-])cc1)NC(=O)c1ccccc1` [SB297006]?
remaining activity at 3.75 µM ([1]; Well no.=8132): 97.6%; remaining activity at 3.75 µM ([1]; Well no.=8211): 102%; remaining activity at 1.25 µM ([2]; Well no.=8132): 103%

Which remaining activity at 3.75 µM ([1]; Well no.=2749) does the source give for `CN(C)CCOc1ccc(-c2nc(-c3ccncc3)c(-c3ccc4c(c3)CC/C4=N\O)[nH]2)cc1` [SB590885] here?
The remaining activity at 3.75 µM was 99.9%.

What about the remaining activity at 1.25 µM ([2]; Well no.=2749) of the same compound?
Its remaining activity at 1.25 µM is 101%.

Which results are given for `O=C(Nc1ccccc1Br)N[C@@H]1CCN(c2ccc(C(F)(F)F)cn2)C1` [SB705498]?
remaining activity at 3.75 µM ([1]; Well no.=4735): 106%; remaining activity at 1.25 µM ([2]; Well no.=4735): 103%

Which results are given for `Oc1ccc(-c2nc(-c3ccc(F)cc3)c(-c3ccncc3)[nH]2)cc1` [SB 202190 - 4-[4-(4-Fluorophenyl)-5-(4-pyridinyl)-1H-imidazol-2-yl]phenol]?
remaining activity at 3.75 µM ([1]; Well no.=2380): 94.8%; remaining activity at 1.25 µM ([2]; Well no.=2380): 96.6%

For `Oc1ccc(-c2nc(-c3ccc(F)cc3)c(-c3ccncc3)[nH]2)cc1` [SB 202190], which remaining activity at 3.75 µM ([1]; Well no.=2614) is on record?
The remaining activity at 3.75 µM was 95.5%.

And the remaining activity at 1.25 µM ([2]; Well no.=2614)?
The remaining activity at 1.25 µM was 95%.

With `C[S+]([O-])c1ccc(-c2nc(-c3ccc(F)cc3)c(-c3ccncc3)[nH]2)cc1` (stereo not drawn) [SB 203580] as the compound, how does the remaining activity at 3.75 µM ([1]; Well no.=2644) read?
Its remaining activity at 3.75 µM is 91.7%.

What about the remaining activity at 1.25 µM ([2]; Well no.=2644) of the same compound?
The remaining activity at 1.25 µM was 91.3%.

How did the remaining activity at 3.75 µM ([1]; Well no.=1170) turn out when `CCCCN1CCC(COC(=O)c2cc(Cl)c(N)c3c2OCCO3)CC1` [SB 204070 hydrochloride] was run?
The remaining activity at 3.75 µM was 99.4%.

And the remaining activity at 1.25 µM ([2]; Well no.=1170)?
The remaining activity at 1.25 µM was 97.3%.

For `CC#CCOC(=O)c1c(C)nc2sc3c(c2c1N)CCC(O)C3` (stereo not drawn) [SB 205384], which remaining activity at 3.75 µM ([1]; Well no.=1508) is on record?
Its remaining activity at 3.75 µM is 96.2%.

What about the remaining activity at 1.25 µM ([2]; Well no.=1508) of the same compound?
The remaining activity at 1.25 µM was 97.4%.

What does the source list for `Cn1ccc2cc3c(cc21)CCN3C(=O)Nc1cccnc1` [SB 206553 hydrochloride]?
remaining activity at 3.75 µM ([1]; Well no.=1375): 101%; remaining activity at 1.25 µM ([2]; Well no.=1375): 99.8%

Which results are given for `Cn1cc(C2=C(c3ccc(Cl)cc3Cl)C(=O)NC2=O)c2ccccc21` [SB 216763 - 3-(2,4-Dichlorophenyl)-4-(1-methyl-1H-indol-3-yl)-1H-pyrrole-2,5-dione]?
remaining activity at 3.75 µM ([1]; Well no.=2442): 100%; remaining activity at 1.25 µM ([2]; Well no.=2442): 96.9%

`O=C1NC(=O)c2c1c1c3ccccc3n3c1c1c2c2ccccc2n1[C@H]1CC[C@@H]3O1` [SB 218078] was tested. Which remaining activity at 3.75 µM ([1]; Well no.=2648) did it give?
The remaining activity at 3.75 µM was 94.3%.

And the remaining activity at 1.25 µM ([2]; Well no.=2648)?
The remaining activity at 1.25 µM was 92.1%.

How did the remaining activity at 3.75 µM ([1]; Well no.=1423) turn out when `Cc1nc(-c2ccc(-c3ccc(C(=O)N4CCc5cc6c(cc54)C4(CCN(C)CC4)CO6)cc3)c(C)c2)no1` [SB 224289 hydrochloride] was run?
The remaining activity at 3.75 µM was 97.3%.

And the remaining activity at 1.25 µM ([2]; Well no.=1423)?
Its remaining activity at 1.25 µM is 96.6%.

What does the source list for `COc1nccc(-c2c(-c3ccc(F)cc3)ncn2[C@H]2CC[C@H](O)CC2)n1` [SB 239063 - trans-4-[4-(4-Fluorophenyl)-5-(2-methoxy-4-pyrimidinyl)-1H-imidazol-1-yl]cyclohexanol]?
remaining activity at 3.75 µM ([1]; Well no.=2478): 98.4%; remaining activity at 1.25 µM ([2]; Well no.=2478): 98.8%

For `COc1nccc(-c2c(-c3ccc(F)cc3)ncn2[C@H]2CC[C@H](O)CC2)n1` [SB 239063], which remaining activity at 3.75 µM ([1]; Well no.=2667) is on record?
The remaining activity at 3.75 µM was 98%.

What about the remaining activity at 1.25 µM ([2]; Well no.=2667) of the same compound?
The remaining activity at 1.25 µM was 93%.

What does the source list for `Cc1cc2c(cc1Cl)N(C(=O)Nc1ccc(Oc3cccnc3C)nc1)CC2` [SB 242084 dihydrochloride]?
remaining activity at 3.75 µM ([1]; Well no.=1222): 102%; remaining activity at 1.25 µM ([2]; Well no.=1222): 102%

With `CC1CCN(CC[C@H]2CCCN2S(=O)(=O)c2cccc(O)c2)CC1` [SB 269970 hydrochloride] as the compound, how does the remaining activity at 3.75 µM ([1]; Well no.=1220) read?
The remaining activity at 3.75 µM was 104%.

And the remaining activity at 1.25 µM ([2]; Well no.=1220)?
Its remaining activity at 1.25 µM is 102%.

Which results are given for `COc1ccc(NS(=O)(=O)c2sc3ccc(Cl)cc3c2C)cc1N1CCNCC1` [SB 271046 (Hydrochloride)]?
remaining activity at 3.75 µM ([1]; Well no.=7863): 101%; remaining activity at 1.25 µM ([2]; Well no.=7863): 102%

Which remaining activity at 3.75 µM ([1]; Well no.=4934) does the source give for `COc1ccc(NS(=O)(=O)c2sc3ccc(Cl)cc3c2C)cc1N1CCNCC1` [SB 271046] here?
The remaining activity at 3.75 µM was 92.4%.

And the remaining activity at 1.25 µM ([2]; Well no.=4934)?
Its remaining activity at 1.25 µM is 94.2%.

How did the remaining activity at 3.75 µM ([1]; Well no.=5801) turn out when `CCOC(=O)[C@H](Cc1ccc([N+](=O)[O-])cc1)NC(=O)c1ccccc1` [SB 297006] was run?
Its remaining activity at 3.75 µM is 98.4%.

What about the remaining activity at 1.25 µM ([2]; Well no.=5801) of the same compound?
Its remaining activity at 1.25 µM is 98.7%.

Which results are given for `COC(=O)[C@H](Cc1ccc([N+](=O)[O-])cc1)NC(=O)c1cccc2ccccc12` [SB 328437]?
remaining activity at 3.75 µM ([1]; Well no.=5812): 93.4%; remaining activity at 1.25 µM ([2]; Well no.=5812): 94.2%

With `NC(=O)c1ccc(-c2nc(-c3ccccn3)c(-c3ccc4c(c3)OCO4)[nH]2)cc1` [SB 431542 - 4-[4-(1,3-benzodioxol-5-yl)-5-(2-pyridinyl)-1H-imidazol-2-yl]benzamide] as the compound, how does the remaining activity at 3.75 µM ([1]; Well no.=2440) read?
The remaining activity at 3.75 µM was 107%.

What about the remaining activity at 1.25 µM ([2]; Well no.=2440) of the same compound?
The remaining activity at 1.25 µM was 106%.

Which remaining activity at 3.75 µM ([1]; Well no.=4901) does the source give for `Cc1cccc(-c2[nH]c(C(C)(C)C)nc2-c2ccc3nccnc3c2)n1` [SB 525334] here?
Its remaining activity at 3.75 µM is 99.1%.

And the remaining activity at 1.25 µM ([2]; Well no.=4901)?
Its remaining activity at 1.25 µM is 99.5%.

Which results are given for `Cc1ccc(C(=O)N(CCCN)[C@@H](c2oc3cc(Cl)ccc3c(=O)c2Cc2ccccc2)C(C)C)cc1` [SB 743921]?
remaining activity at 3.75 µM ([1]; Well no.=4812): 100%; remaining activity at 1.25 µM ([2]; Well no.=4812): 97.2%

What does the source list for `O=S(=O)(CC1CS1)c1ccc(Oc2ccccc2)cc1` (stereo not drawn) [SB-3CT]?
remaining activity at 3.75 µM ([1]; Well no.=8478): 91.4%; remaining activity at 1.25 µM ([2]; Well no.=8478): 95.9%

What does the source list for `Cn1cc(C2=C(c3ccc(Cl)cc3Cl)C(=O)NC2=O)c2ccccc21` [SB-216763]?
remaining activity at 3.75 µM ([1]; Well no.=3035): 89.6%; remaining activity at 1.25 µM ([2]; Well no.=3035): 87.5%

Which remaining activity at 3.75 µM ([1]; Well no.=7005) does the source give for `CC[C@H](NC(=O)c1c(C)c(-c2ccccc2)nc2ccccc12)c1ccccc1` [SB-222200] here?
Its remaining activity at 3.75 µM is 86.5%.

What about the remaining activity at 1.25 µM ([2]; Well no.=7005) of the same compound?
The remaining activity at 1.25 µM was 96.1%.

Which remaining activity at 3.75 µM ([1]; Well no.=5777) does the source give for `Cc1ccccc1N(C)C(=O)c1ccc([S+]([O-])c2nccs2)c([N+](=O)[O-])c1` (stereo not drawn) [SB-268262] here?
Its remaining activity at 3.75 µM is 100%.

What about the remaining activity at 1.25 µM ([2]; Well no.=5777) of the same compound?
The remaining activity at 1.25 µM was 99.5%.

For `CC1CCN(CC[C@H]2CCCN2S(=O)(=O)c2cccc(O)c2)CC1` [SB-269970 (hydrochloride)], which remaining activity at 3.75 µM ([1]; Well no.=8385) is on record?
The remaining activity at 3.75 µM was 101%.

And the remaining activity at 1.25 µM ([2]; Well no.=8385)?
Its remaining activity at 1.25 µM is 108%.

For `Cc1nc2ccc(NC(=O)Nc3ccnc4cccnc34)cc2o1` [SB-334867 (free base)], which remaining activity at 3.75 µM ([1]; Well no.=6999) is on record?
Its remaining activity at 3.75 µM is 104%.

What about the remaining activity at 1.25 µM ([2]; Well no.=6999) of the same compound?
The remaining activity at 1.25 µM was 101%.

Which results are given for `COc1cccc(NC(=O)/C=C/c2ccc(Cl)cc2)c1` [SB-366791]?
remaining activity at 3.75 µM ([1]; Well no.=1260): 103%; remaining activity at 1.25 µM ([2]; Well no.=1260): 104%
